Experiments:
[1] = Adverse events and DLT, MRZ with TMZ and RT in newly diagnosed WHO Grade IV malignant glioma; assay type: in vivo, human
Experimental: The clinical trial was a dose-escalation study (Stage 1, MRZ+TMZ+RT or MRZ+TMZ) consisting of two arms—concomitant and adjuvant—in each, MRZ added to standard of care at increasing IV doses in a 3+3 design, and a dose expansion study at RP2D (Stage 2, RP2D MRZ+TMZ+RT followed by RP2D MRZ+TMZ) first with concomitant and then with adjuvant standard of care.
In the experimental Stage 1 Concomitant Treatment (MRZ+TMZ+RT) Drug MRZ dose ranges from 0.55 mg/m^2 to 1.0 mg/m^2 given IV over 10 minutes on days 1, 8, 15, 29, and 36 during concomitant treatment. MRZ dose ranges from 0.55 to 1.0 mg/m^2 given IV over 10 minutes on Days 1, 8, 15 every 28 days during adjuvant treatment. TMZ will be administered once daily, 7 days/week, for 6 weeks, starting on Day 1, at a dose of 75 mg/m^2 during concomitant treatment. TMZ will be administered once daily on days 1-5 every cycle (28 day cycles, up to 12 cycles), dose range 150 to 200 mg/m^2 during adjuvant treatment. Radiation (RT) will be administered once daily 5 days/week, for 30 doses over 6 weeks to a total dose of 60 Gy, staring on Day 1 during concomitant treatment. Patients who complete concomitant treatment may continue on to adjuvant treatment, in the adjuvant cohort RT and TMZ treatment is received outside of protocol therapy.
In the experimental Stage 2 dose expansion 18 additional evaluable patients were enrolled in a cohort in which concomitant treatment (MRZ+TMZ+RT) is followed by adjuvant treatment (MRZ+TMZ) to confirm the MTD for each treatment regime as determined in the dose-escalation (Stage 1), and to assess preliminary activity of the recommended Phase 2 dose (RP2D, 0.8 mg/m^2). Table 44 and Table 45 give the treatment parameters of the present study and demographics of study participants.
Methods: Patients enrolled in separate concomitant (TMZ+RT+MRZ at 0.55, 0.7, 0.8, and 1.0 mg/m^2 dose levels DL) and adjuvant (TMZ+MRZ) cohorts in 3+3 design, followed by dose-expansion at the RD (concomitant followed by adjuvant). MRZ (10 min IV infusion): Concomitant (42 days (D), on D1, 8, 15, 29, 36; Adjuvant (28D-cycle) on D1, 8, 15.
Outcome Measures: Primary Outcome Measures: (1) Determine MRZ maximum tolerated dose (MTD) and recommended phase 2 dose (RP2D) for both concomitant treatment (MRZ+TMZ+RT) and adjuvant treatment (MRZ+TMZ). Time Frame: 42-day concomitant treatment and 28-day Cycle 1 adjuvant treatment. Description: Assess dose-limiting toxicities (DLTs) in each dose-escalation arm.
Methods: Patients enrolled in separate concomitant (TMZ/RT+MRZ) and adjuvant (TMZ+MRZ) treatment cohorts in dose-escalation (3+3 design, MRZ at 0.55, 0.7, 0.8, and 1.0 mg/m^2), followed by dose-expansion at the RD in concomitant followed by adjuvant treatment. MRZ (10 min IV infusion): Concomitant Day 1, 8, 15, 29, 36; Adjuvant (28D-cycle) Day 1, 8, 15.

[2] = Marizomib blood pharmacokinetics (Part 1 Phase 1); details: for AUC(0-t) / Cmax / Tmax / Vd / half-life: human, whole blood, intravenous
Experimental: Blood samples will be taken for peak and trough measurements, pre-dose and immediately prior to (end of infusion) EOI, on Cycle 1 Day 1. On Cycle 1 Day 15 full PK sampling will be done: pre-dose, immediately prior to EOI and then 2, 5, 15, 30, 45, 60, 90 and 120 minutes post infusion. The following PK parameters will be estimated by non-compartmental analysis:
Non-compartmental analyses will be performed. […] Blood concentrations and computed PK parameters for MRZ will be listed and summarized by cohort (mean, geometric mean, standard deviation, coefficient of variation, minimum, maximum and number of observations).
Blood should be drawn from the contralateral arm to the infusion site and using an indwelling catheter to avoid multiple needle sticks is recommended. Sample collection time should be recorded on the tube label and Case Report Form (CRF) as day: hour: minute. Nominal time of blood collection are given as “time points”; it is critical that an accurately collected actual time of the sample is written on the CRF and on the blood tubes (date entered as dd:mm:yyyy; time entered using a 24-hour clock, hh:mm). For MRZ samples will be obtained before treatment and just prior to end of infusion on Cycle 1 Day 1. On Cycle 1 Day 15, MRZ blood samples will be obtained before treatment, just prior to end of infusion, and 2, 5, 15, 30, 45, 60, 90, and 120 minutes after the infusion. Every effort should be made to collect samples at the prescribed times, but deviations up to 10% of the time point are allowed. Additional samples may be collected if the subject experiences a potentially drug-related SAE. After blood collection, neutralizing solution must be added. Use Sponsor-provided PK kits. Process, store and ship samples per instructions in Study Reference Manual.
Non-compartmental analyses will be performed.

[3] = Cohorts 1-3 0.55, 0.7, 0.8 mg/m^2 (21)
[4] = all grades, Cohort 2 0.7 mg/m^2 (9), concomitant and adjuvant combined
[5] = all grades, Cohort 3 0.8 mg/m^2 (6), concomitant and adjuvant combined
[6] = all grades, Cohort 4 1.0 mg/m^2 (12), concomitant and adjuvant combined
[7] = all grades, all dose-escalation cohorts 0.55-1.0 mg/m^2, N = 33, concomitant and adjuvant combined

In the case of C[C@@]12OC(=O)[C@]1([C@@H](O)[C@@H]1C=CCCC1)NC(=O)[C@@H]2CCCl [MRZ, marizomib], the “Most common TEAEs (≥20% patients)” value ([1]; 33 patients, dose-escalation) is reported as “fatigue, nausea, vomiting, hallucination, ataxia, headache”, the “Anorexia, Total # Patients with Grade 3 Event” value [1] is reported as 0 and the “Ataxia, Total # Patients with Grade 3 Event” value [1] is reported as 3. For the same molecule, the “Confusion, Total # Patients with Grade 3 Event” value [1] was 2, the “Constipation, Total # Patients with Grade 3 Event” value [1] was 0 and the “Diarrhea, Total # Patients with Grade 3 Event” value [1] was 0. The “Dizziness, Total # Patients with Grade 3 Event” value [1] was 0, the “Fatigue, Total # Patients with Grade 3 Event” value [1] was 2 and the “Hallucination, Total # Patients with Grade 3 Event” value [1] was 0. For the same molecule, the “Headache, Total # Patients with Grade 3 Event” value [1] was 2, the “Nausea, Total # Patients with Grade 3 Event” value [1] was 0 and the “Vomiting, Total # Patients with Grade 3 Event” value [1] was 0. The “Anorexia, Total # Patients with Grade 3 Event” value [1, 3] was 0, the “Ataxia, Total # Patients with Grade 3 Event” value [1, 3] was 1 and the “Confusion, Total # Patients with Grade 3 Event” value [1, 3] was 0. The “Constipation, Total # Patients with Grade 3 Event” value [1, 3] was 0, the “Diarrhea, Total # Patients with Grade 3 Event” value [1, 3] was 0 and the “Dizziness, Total # Patients with Grade 3 Event” value [1, 3] was 0. The “Fatigue, Total # Patients with Grade 3 Event” value [1, 3] was 5, the “Hallucination, Total # Patients with Grade 3 Event” value [1, 3] was 1 and the “Headache, Total # Patients with Grade 3 Event” value [1, 3] was 0. The “Nausea, Total # Patients with Grade 3 Event” value [1, 3] was 0, the “Vomiting, Total # Patients with Grade 3 Event” value [1, 3] was 1 and the “patients with at least one Grade ≥3 TEAE” value ([1]; MRZ 0.7 mg/m^2, of 9 (Example 6)) was 2. For the same molecule, the “patients with Grade 3 TEAEs” value ([1]; MRZ 0.7 mg/m^2, of 9, as of Feb. 1, 2018) was 4, the “patients with at least one Grade ≥3 TEAE” value ([1]; MRZ 0.8 mg/m^2, of 6 (Example 6)) was 1 and the “patients with Grade 3 TEAEs” value ([1]; MRZ 0.8 mg/m^2, of 6, as of Feb. 1, 2018) was 2. For the same molecule, the “patients with DLTs” value ([1]; MRZ 1.0 mg/m^2, concomitant and adjuvant) was 5/12, the “patients with at least one Grade ≥3 TEAE” value ([1]; MRZ 1.0 mg/m^2, of 12) was 11 and the tolerability ([1]; MRZ with SOC in ndGBM) was “well tolerated”. The “Anorexia, incidence of treatment-related adverse event” value (from here on “Anorexia, incidence”) [1, 4] was 3, the “Ataxia, incidence of treatment-related adverse event” value (from here on “Ataxia, incidence”) [1, 4] was 1 and the “Confusion, incidence of treatment-related adverse event” value (“Confusion, incidence” below) [1, 4] was 4. The “Constipation, incidence of treatment-related adverse event” value (from here on “Constipation, incidence”) [1, 4] was 6, the “Diarrhea, incidence of treatment-related adverse event” value (from here on “Diarrhea, incidence”) [1, 4] was 2 and the “Dizziness, incidence of treatment-related adverse event” value (from here on “Dizziness, incidence”) [1, 4] was 2. For the same molecule, the “Fatigue, incidence of treatment-related adverse event” value (shortened to “Fatigue, incidence”) [1, 4] was 8, the “Hallucination, incidence of treatment-related adverse event” value (from here on “Hallucination, incidence”) [1, 4] was 4 and the “Headache, incidence of treatment-related adverse event” value (shortened to “Headache, incidence”) [1, 4] was 3. The “Nausea, incidence of treatment-related adverse event” value (shortened to “Nausea, incidence”) [1, 4] was 4, the “Vomiting, incidence of treatment-related adverse event” value (“Vomiting, incidence” for short) [1, 4] was 4 and the “Anorexia, incidence” value [1, 5] was 2. For the same molecule, the “Ataxia, incidence” value [1, 5] was 1, the “Confusion, incidence” value [1, 5] was 1 and the “Constipation, incidence” value [1, 5] was 2. The “Diarrhea, incidence” value [1, 5] was 2, the “Dizziness, incidence” value [1, 5] was 1 and the “Fatigue, incidence” value [1, 5] was 5. For the same molecule, the “Hallucination, incidence” value [1, 5] was 2, the “Headache, incidence” value [1, 5] was 2 and the “Nausea, incidence” value [1, 5] was 5. The “Vomiting, incidence” value [1, 5] was 4, the “Anorexia, incidence” value [1, 6] was 1 and the “Ataxia, incidence” value [1, 6] was 4. The “Confusion, incidence” value [1, 6] was 3, the “Constipation, incidence” value [1, 6] was 4 and the “Diarrhea, incidence” value [1, 6] was 1. The “Dizziness, incidence” value [1, 6] was 1, the “Fatigue, incidence” value [1, 6] was 8 and the “Hallucination, incidence” value [1, 6] was 4. For the same molecule, the “Headache, incidence” value [1, 6] was 4, the “Nausea, incidence” value [1, 6] was 5 and the “Vomiting, incidence” value [1, 6] was 4. For the same molecule, the “Anorexia, treatment-related adverse event, total in parentheses” value [1, 7] was “Anorexia (8)”, the “Ataxia, treatment-related adverse event, total in parentheses” value [1, 7] was “Ataxia (8)” and the “Confusion, treatment-related adverse event, total in parentheses” value [1, 7] was “Confusion (9)”. The “Constipation, treatment-related adverse event, total in parentheses” value [1, 7] was “Constipation (11)”, the “Diarrhea, treatment-related adverse event, total in parentheses” value [1, 7] was “Diarrhea (7)” and the “Dizziness, treatment-related adverse event, total in parentheses” value [1, 7] was “Dizziness (6)”. For the same molecule, the “Fatigue, treatment-related adverse event, total in parentheses” value [1, 7] was “Fatigue (26)”, the “Hallucination, treatment-related adverse event, total in parentheses” value [1, 7] was “Hallucination (11)” and the “Headache, treatment-related adverse event, total in parentheses” value [1, 7] was “Headache (10)”. For the same molecule, the “Nausea, treatment-related adverse event, total in parentheses” value [1, 7] was “Nausea (17)”, the “Vomiting, treatment-related adverse event, total in parentheses” value [1, 7] was “Vomiting (12)” and the “RP2D / recommended dose (RD) of MRZ” value ([1]; with TMZ and RT (SOC), ndGBM) was 0.8 mg/m^2. The CLobs ([2]; MRZ 0.7 mg/m^2, C1D8) was 272 ± 166 (3) L/hr, the CLobs ([2]; MRZ 0.8 mg/m^2, C1D8) was 304 ± 85.0 (3) L/hr and the pharmacokinetic parameters ([2]; co-administration with bevacizumab) was “consistent with published parameters and not affected by co-administration”. The AUC(0-t) ([2]; 0.7 mg/m2) was 3.22 ng·h/mL, the Cmax ([2]; 0.7 mg/m2) was 64.9 ± 1.73 ng/mL and the Tmax ([2]; 0.7 mg/m2) was 21.3 min. It also gave a Vd ([2]; 0.7 mg/m2) of 48.3 ± 16.1 L, a half-life ([2]; 0.7 mg/m2) of 16 ± 8.08 min and an AUC(0-t) ([2]; 0.8 mg/m2) of 6.53 ng·h/mL. It also gave a Cmax ([2]; 0.8 mg/m2) of 26.5 ± 7.92 ng/mL, a Tmax ([2]; 0.8 mg/m2) of 8 min and a Vd ([2]; 0.8 mg/m2) of 55 ± 19.7 L. It also gave a half-life ([2]; 0.8 mg/m2) of 7.27 ± 0.423 min, a Tmax ([2]; […]2) of 15.5 min and a Vd ([2]; […]2) of 54.4 ± 10.6 L. For the same molecule, the half-life ([2]; […]2) was 8.2 ± 0.8 min.

— patent US20200085789A1, “USE OF A PROTEASOME INHIBITOR FOR THE TREATMENT OF CENTRAL NERVOUS SYSTEM (CNS) CANCERS” (Celgene International II Sàrl, priority 2017, published 2020)
